Results reported in patent publication US20190075796A1, “Increased walnut yields with brassinosteroid application” (priority 2017, published 2019).

Tests used:
walnut cv. Chandler = assay: Foliar spray field trial in a walnut orchard, cv. Chandler: fruit set and nut weights; assay type: in vivo
Description: (§1) Testing was conducted in two contiguous walnut orchards located in Pirque, Metropolitan Region of Chile. The first orchard is of cultivar Serr, planted at 11×11 m and 20 years old. The second orchard is of cultivar Chandler, planted at 7×6 m and 5 years old. In the 2014/2015 season yield of cultivar Serr was 4,300 kilograms of walnuts in shells per hectare, and in cultivar Chandler the yield was 2,300 kilograms of walnuts in shells per hectare.
(§2) During the 2014/2015 season, four experimental and one control treatments were applied to the Pirque orchard. Treatments were foliar sprays with solutions of Homobrassinolide (HBR) at 0.4, 4.0 and 20 ppm, and HBR 4.0 ppm+CPPU 10 ppm. Control was water. Treatment of each cultivar took place 10 days after said cultivar reached approximately 10% pistillate flower receptive. Each tree was sprayed with approximately 250 ml of solution. At that volume the sprayed leaves and branches are wetted and excess solution is dripping off the tree. Applications were made to small branches having 2 to 4 terminal buds with pistillate flowers, equivalent to 3 to 12 potential fruits per replication. The experimental design was randomized blocks with 10 replications. Ten trees per cultivar received treatment and all treatments were applied to separate spray targets of each tree. The spray targets included pistillate flowers, catkins and leaves.
Walnut flowering of both cultivars in the season was prolonged and irregular, extending for 2 weeks in each cultivar. Bloom was mainly protandrous with catkins fall of 20-30% during the pistillate flowering period for both cultivars. The vegetative growth was normal. When flowering of cv. Serr reached 10 to 20% of receptivity, Aminoethoxy vinyl-glycine was applied at a concentration of 125 ppm to all conditions to delay ripening.
The measurement of fruit set was determined by the difference between the number of fruit harvested and the number of flowers/fruitlets sprayed in late flowering. After harvest, the nuts from the experiment were dried in laboratory at a temperature of 35° C. for 12 hours, and then the nut shell was removed, measuring the weight of both (in shell and shelled) independently.

pollen of cv. Chandler = assay: In vitro pollen germination and pollen tube growth; assay type: cell-based, walnut; conditions: 20° C.
Description: An in vitro experiment was done to study the effects of the same treatments as Study 1 on pollen of cv. Chandler. The growing media used for pollen germination and tube growth was prepared in Petri dishes, and consisted of a solution of 10% sucrose and 1% agar in 50 mg per liter boric acid, plus either 0.4 ppm HBR, 4.0 ppm HBR, 20 ppm HBR, or 4.0 ppm HBR+10 pm CPPU. The control solution was distilled water. The experimental design was randomized with 4 replications, using Petri dishes as experimental units. Chandler pollen was sown onto the media with a fine brush, and incubated in a growth chamber for 24 hours at 20° C. Observations of pollen germination were done after 12 hours and pollen tube growth after 24 hours respectively. An Olympus CX31 microscope at 40× was used, and photographs were taken with a ProgRes® C3 camera, using the Capture-Pro computational program. The percentage of germination was determined using the GSA Image Analyzer 3.6.5 program, and the pollen tube length with the Qcad program. FIG. 11 is a representative 20× photomicrograph of germinating Chandler pollen.

walnut cv. Serr = assay: Foliar spray field trial in a walnut orchard, cv. Serr: fruit set and nut weights; assay type: in vivo; conditions: all treatments of HBR except HBR 0.4 ppm
Description: as §1
as §2, with “Ten trees per cultivar received treatment and all treatments were applied to separate spray targets of each tree. The spray targets included pistillate flowers, catkins and leaves.” left out
The measurement of fruit set was determined by the difference between the number of fruit harvested and the number of flowers/fruitlets sprayed in late flowering. […]

Compound: CC[C@@H](C(C)C)C(O)C(O)[C@@H](C)[C@H]1CC[C@H]2[C@@H]3COC(=O)[C@H]4C[C@H](O)[C@H](O)C[C@]4(C)[C@H]3CC[C@]12C (stereo in doubt) [HBR, homobrassinolide]
- fruit set, increase with respect to the control (walnut cv. Chandler; HBR 0.4 ppm): 6.2%
- final weight of walnuts in shell, increase over control (walnut cv. Chandler; HBR 4.0 ppm): 16.9%
- fruit set, increase with respect to the control (walnut cv. Chandler; HBR 4.0 ppm): 5.0%
- final weight of walnuts in shell, increase over control (walnut cv. Chandler; HBR 20 ppm): 29.6%
- fruit set, increase with respect to the control (walnut cv. Chandler; HBR 20 ppm): 13.5%
- pollen germination versus control (pollen of cv. Chandler; 0.4 ppm HBR in medium, observed after 12 hours): less than control
- pollen germination versus control (pollen of cv. Chandler; 4.0 ppm HBR in medium, observed after 12 hours): similar
- pollen tube growth versus control (pollen of cv. Chandler; 4.0 ppm HBR in medium, observed after 24 hours): greater than control
- pollen germination (pollen of cv. Chandler; 20 ppm HBR in medium, observed after 12 hours): no germination
- final weight of shelled walnuts versus control (walnut cv. Serr): greater than control
